From patent US11459339B2, “Biaryl derivative, preparation method thereof and pharmaceutical application thereof” (Abbisko Therapeutics Co., Ltd., priority 2018, dated 2022) come the findings set out here.

A word on the IC50: it is the concentration that inhibits the measured activity by half. A word on the EC50: it is the midpoint of the concentration-response curve.

In assay [1] the target is interaction between PD-1 and PD-L1 (Homo sapiens (Human), UniProt Q9NZQ7). The experiment in a line: PD1-PDL1 HTRF binding activity test (Cisbio PD-1/PD-L1 binding assay kit). The settings on record: read-out: PD1-PDL1 HTRF Binding Activity IC50.
Sequence of interaction between PD-1 and PD-L1 (Q9NZQ7 19-238): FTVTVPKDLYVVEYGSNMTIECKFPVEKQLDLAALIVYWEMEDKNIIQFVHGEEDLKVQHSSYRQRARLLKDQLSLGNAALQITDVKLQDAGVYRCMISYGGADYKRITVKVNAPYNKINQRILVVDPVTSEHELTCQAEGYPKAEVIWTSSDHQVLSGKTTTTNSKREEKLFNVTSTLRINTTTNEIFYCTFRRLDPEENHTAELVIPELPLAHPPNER
In assay [2] the target is interaction between PD-1 and PD-L1 expressed on cell surfaces (Homo sapiens (Human), UniProt Q9NZQ7). The experiment in a line: Jurkat reporter gene cellular assay (Jurkat/NF-κB-luc/PD1 cells cocultured with Raji-PD-L1 cells, OKT-3 stimulation). It is filed as cell-based. The following applies: NF-κB-luc reporter activation fold, 6 hrs; read-out: Cell Activity EC50. The essentials:
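EC50 comes from non-linear regression of activation fold (compound reading over DMSO reading) against concentration. Read-out was luciferase signal 6 h after OKT-3-stimulated coculture of PD-1/NF-κB-luc Jurkat cells with PD-L1-expressing Raji cells, 5*10^4 cells each per well.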
On the technique in general: Reporter assays use an easily measured gene product as a stand-in for the process of interest.

Sequence of interaction between PD-1 and PD-L1 expressed on cell surfaces (Q9NZQ7 19-290): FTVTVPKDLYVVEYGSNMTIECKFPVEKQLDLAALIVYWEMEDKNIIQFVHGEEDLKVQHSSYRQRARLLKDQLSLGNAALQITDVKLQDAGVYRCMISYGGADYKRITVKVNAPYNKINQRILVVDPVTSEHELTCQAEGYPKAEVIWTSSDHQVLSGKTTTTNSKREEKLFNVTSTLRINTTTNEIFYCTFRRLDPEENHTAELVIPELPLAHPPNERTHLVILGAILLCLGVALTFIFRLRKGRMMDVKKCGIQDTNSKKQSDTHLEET

Regarding `CCOC(=O)[C@H](CO)NCc1cnc(C(=O)Nc2cccc(-c3cccc(NC(=O)c4cc(C5CC5)c(CN[C@@H](CO)C(=O)OCC)cn4)c3C)c2C)cc1C1CC1` [Example 107, diethyl 2,2′-((((((2,2′-dimethyl-[1,1′-biphenyl]-3,3′-diyl)bis(azanediyl))bis(carbonyl))bis(4-cyclopropylpyridine-6,3-diyl))bis (methylene))bis(azanediyl))(2S,2′S)-bis (3-hydroxypropanoate)], in assay [1], the IC50 turned out to be 15.2 nM. Further, the EC50 in assay [2] is 753 nM.

Turning to `Cc1c(NC(=O)c2cc(C3CC3)c(CN[C@@H](CO)C(=O)O)cn2)cccc1-c1cccc(NC(=O)c2cc(C3CC3)c(CN[C@@H](CO)C(=O)O)cn2)c1C` [Example 108, (2S,2′S)-2,2′-((((((2,2′-dimethyl-[1,1′-biphenyl]-3,3′-diyl)bis(azanediyl))bis(carbonyl))bis(4-cyclopropylpyridine-6,3-diyl))bis(methylene))bis(azanediyl)) bis(3-hydroxypropanoic acid)], the IC50 in assay [1] came out at 0.84 nM. Moreover, in assay [2], the EC50 was determined as 42.3 nM.

Consider `COC(=O)[C@@H]1CCCCN1Cc1cnc(C(=O)Nc2cccc(-c3cccc(NC(=O)c4cc(C5CC5)c(CN5CCCC[C@H]5C(=O)OC)cn4)c3C)c2C)cc1C1CC1` [Example 109, dimethyl 1,1′-(((((2,2′-dimethyl-[1,1′-biphenyl]-3,3′-diyl)bis(azanediyl))bis(carbonyl))bis(4-cyclopropylpyridine-6,3-diyl))bis(methylene))(2S,2′S)-bis (piperidine-2-carboxylate)], for which the IC50 in assay [1] is 375 nM. In assay [2], the EC50 was over 10000 nM.

For `Cc1c(NC(=O)c2cc(C3CC3)c(CN3CCCC[C@H]3C(=O)O)cn2)cccc1-c1cccc(NC(=O)c2cc(C3CC3)c(CN3CCCC[C@H]3C(=O)O)cn2)c1C` [Example 110, (2S,2′S)-1,1′-(((((2,2′-dimethyl-[1,1′-biphenyl]-3,3′-diyl)bis(azanediyl))bis (carbonyl))bis(4-cyclopropylpyridine-6,3-diyl))bis(methylene))bis(piperidine-2-carboxylic acid)], in assay [1], the IC50 came out at 0.67 nM. For the same compound, the EC50 in assay [2] amounted to 51 nM.

With `CCOC(=O)[C@@H](NCc1cnc(C(=O)Nc2cccc(-c3cccc(NC(=O)c4cc(C5CC5)c(CN[C@H](C(=O)OCC)[C@@H](C)O)cn4)c3C)c2C)cc1C1CC1)[C@@H](C)O` [Example 111, diethyl 2,2′-((((((2,2′-dimethyl-[1,1′-biphenyl]-3,3′-diyl)bis (azanediyl))bis(carbonyl))bis (4-cyclopropylpyridine-6,3-diyl))bis(methylene))bis(azanediyl)) (2S,2′S,3R,3′R)-bis(3-hydroxybutanoate)], the IC50 in assay [1] stood at 79.4 nM. Also, the EC50 in assay [2] is 5950 nM.

Turning to `Cc1c(NC(=O)c2cc(C3CC3)c(CN[C@H](C(=O)O)[C@@H](C)O)cn2)cccc1-c1cccc(NC(=O)c2cc(C3CC3)c(CN[C@H](C(=O)O)[C@@H](C)O)cn2)c1C` [Example 112, (2S,2′S,3R,3′R)-2,2′-((((((2,2′-dimethyl-[1,1′-biphenyl1]-3,3′-diyl)bis(azanediyl))bis(carbonyl))bis(4-cyclopropylpyridine-6,3-diyl))bis(methylene))bis(azanediyl))bis(3-hydroxybutanoic acid)], the IC50 in assay [1] came to 1.02 nM. In assay [2], the EC50 was found to be 34.6 nM.

As to `Cc1c(NC(=O)c2cc(C3CC3)c(CN[C@H]3CCOC3=O)cn2)cccc1-c1cccc(NC(=O)c2cc(C3CC3)c(CN[C@H]3CCOC3=O)cn2)c1C` [Example 113], the IC50 in assay [1] is 6.77 nM. Further, the EC50 in assay [2] amounted to 979 nM.

Turning to `Cc1c(NC(=O)c2cc(C3CC3)c(CN[C@@H](CCO)C(=O)O)cn2)cccc1-c1cccc(NC(=O)c2cc(C3CC3)c(CN[C@@H](CCO)C(=O)O)cn2)c1C` [Example 114, (2S,2′S)-2,2′-((((((2,2′-dimethyl-[1,1′-biphenyl]-3,3′-diyl)bis(azanediyl))bis(carbonyl))bis (4-cyclopropylpyridine-6,3-diyl))bis (methylene))bis(azanediyl))bis(4-hydroxybutanoic acid)], the IC50 in assay [1] worked out at 5.2 nM. Moreover, in assay [2], the EC50 turned out to be 89 nM.

Regarding `CCOC(=O)C[C@H](NCc1cnc(C(=O)Nc2cccc(-c3cccc(NC(=O)c4cc(C5CC5)c(CN[C@@H](CC(=O)OCC)C(=O)OCC)cn4)c3C)c2C)cc1C1CC1)C(=O)OCC` [Example 115, tetraethyl 2,2′-((((((2,2′-dimethyl-[1,1′-biphenyl]-3,3′-diyl)bis(azanediyl))bis(carbonyl))bis(4-cyclopropylpyridine-6,3-diyl))bis(methylene))bis(azanediyl)) (2S,2′S)-disuccinate], the IC50 in assay [1] is over 400 nM. Besides, the EC50 in assay [2] was over 10000 nM.

Turning to `Cc1c(NC(=O)c2cc(C3CC3)c(CN[C@@H](CC(=O)O)C(=O)O)cn2)cccc1-c1cccc(NC(=O)c2cc(C3CC3)c(CN[C@@H](CC(=O)O)C(=O)O)cn2)c1C` [Example 116, (2S,2′S)-2,2′-((((((2,2′-dimethyl-[1,1′-biphenyl]-3,3′-diyl)bis(azanediyl))bis(carbonyl))bis(4-cyclopropylpyridine-6,3-diyl))bis(methylene))bis(azanediyl))disuccinic acid], the IC50 in assay [1] was 0.94 nM. For the same compound, the EC50 in assay [2] is 1340 nM.

Take `CCOC(=O)C[C@@H](NCc1cnc(C(=O)Nc2cccc(-c3cccc(NC(=O)c4cc(C5CC5)c(CN[C@H](CC(=O)OCC)C(=O)OCC)cn4)c3C)c2C)cc1C1CC1)C(=O)OCC` [Example 117, tetraethyl 2,2′-((((((2,2′-dimethyl-[1,1′-biphenyl]-3,3′-diyl)bis(azanediyl))bis(carbonyl))bis (4-cyclopropylpyridine-6,3-diyl))bis (methylene))bis(azanediyl))(2R,2′R)-disuccinate]: in assay [1], the IC50 is over 400 nM. Also, the EC50 in assay [2] was over 10000 nM.

Take `Cc1c(NC(=O)c2cc(C3CC3)c(CN[C@H](CC(=O)O)C(=O)O)cn2)cccc1-c1cccc(NC(=O)c2cc(C3CC3)c(CN[C@H](CC(=O)O)C(=O)O)cn2)c1C` [Example 118, (2R,2′R)-2,2′-((((((2,2′-dimethyl-[1,1′-biphenyl]-3,3′-diyl)bis(azanediyl))bis(carbonyl))bis (4-cyclopropylpyridine-6,3-diyl))bis (methylene))bis(azanediyl))disuccinic acid]: the IC50 in assay [1] was found to be 1.17 nM. The EC50 in assay [2] was determined as 1040 nM.

With `CCOC(=O)C(NCc1cnc(C(=O)Nc2cccc(-c3cccc(NC(=O)c4cc(C5CC5)c(CNC(C(=O)OCC)C(=O)OCC)cn4)c3C)c2C)cc1C1CC1)C(=O)OCC` [Example 119, tetraethyl 2,2′-((((((2,2′-dimethyl-[1,1′-biphenyl]-3,3′-diyl)bis(azanediyl))bis(carbonyl))bis(4-cyclopropylpyridine-6,3-diyl))bis(methylene))bis(azanediyl))dimalonate], the IC50 in assay [1] is over 400 nM. For the same compound, the EC50 in assay [2] was over 10000 nM.

In the case of `Cc1c(NC(=O)c2cc(C3CC3)c(CNC(C(=O)O)C(=O)O)cn2)cccc1-c1cccc(NC(=O)c2cc(C3CC3)c(CNC(C(=O)O)C(=O)O)cn2)c1C` [Example 120, 2,2′-((((((2,2′-dimethyl-[1,1′-biphenyl]-3,3′-diyl)bis(azanediyl))bis(carbonyl))bis (4-cyclopropylpyridine-6,3-diyl))bis (methylene))bis(azanediyl))dimalonic acid], in assay [1], the IC50 stood at 1.43 nM. In assay [2], the EC50 stood at 1760 nM.
